Assay results reported in patent US12252644B2, “Polarizer and image display device” (FUJIFILM Corporation, priority 2019, dated 2025).

Experiment: Measurement of maximum absorption wavelength
Type: physicochemical
Details: solution in a good solvent, spectrophotometer UV-3150, 250 to 800 nm
Description: The maximum absorption wavelength (nm) of the dichroic material in the present specification is acquired from an ultraviolet visible spectrum in a wavelength range of 380 to 800 nm measured by a spectrophotometer using a solution prepared by dissolving the dichroic material in a good solvent.
The maximum absorption wavelengths of the dichroic materials used in the examples and the comparative examples were measured. The maximum absorption wavelength was acquired from the ultraviolet visible light spectrum in a wavelength range of 250 to 800 nm which was measured by a spectrophotometer (product name, “UV-3150”, manufactured by Shimadzu Corporation) using a solution in which the dichroic material was dissolved in a good solvent.

Structure (SMILES)	Third dichroic material maximum absorption wavelength	Second dichroic material maximum absorption wavelength	First dichroic material maximum absorption wavelength
CCOC(=O)CCCCOc1ccc(N=Nc2ccc(N=Nc3ccc(N=Nc4ccc(OCCCCC(=O)OCC)cc4)cc3C)cc2)cc1 [Example Y-2]	418 nm		
CCN(CC)c1ccc(N=Nc2ccc(N=Nc3ccc(OCCCCCCCCCOC(C)=O)cc3)cc2)cc1 [Example M-5]		484 nm	
CCC(=O)OCCCCCCCCCOc1ccc(N=Nc2ccc(N=Nc3ccc(N(CC)CCOC(=O)CC)cc3)cc2)cc1 [Example M-2]		471 nm	
C=CC(=O)OCCN(CC)c1ccc(N=Nc2ccc(N=Nc3ccc(OCCCCCCCCCOC(=O)CC)cc3)cc2)cc1 [Example M-3]		471 nm	
C=CC(=O)OCCCCOc1ccc(N=Nc2ccc(N=Nc3ccc(N=Nc4ccc(OCCCCOC(C)=O)cc4)cc3)c(C)c2)cc1 [Example Y-1]	418 nm		
CCC(=O)OCCN(C)c1ccc(N=Nc2ccc(N=Nc3ccc(OCCCCCCCCCOC(C)=O)cc3)cc2)cc1 [Example M-1]		466 nm	
C=CC(=O)OCCN(CC)c1ccc(N=Nc2nc3sc(N=Nc4ccc(OCCCCCCCCCOC(C)=O)cc4)cc3s2)cc1 [Example C-1]			591 nm
CC(=O)OCCCCCCCCCOc1ccc(N=Nc2ccc(N=Nc3ccc(N(C)CCOC(C)=O)cc3)cc2)cc1 [Example M-6]		465 nm	
CCC(=O)OCCCCCCCCCOc1ccc(N=Nc2ccc(N=Nc3ccc(N(CC)CCC#N)cc3)cc2)c(Cl)c1 [Example M-4]		460 nm	
